Measured values: US8946203B2, “Benzodioxane inhibitors of leukotriene production” (Boehringer Ingelheim International GmbH, priority 2012, dated 2015)
Where a name gives a salt, the structure may show the parent alone. Read-outs that look alike come from different tables or passages of the source.

How the values were obtained:
[1] = target: T1, human LTA4 hydrolase (Homo sapiens, UniProt P09960); assay: LTA4H Enzyme assay (cleavage of Arg-AMC, fluorescence); assay type: biochemical
T1 sequence (P09960 1-611): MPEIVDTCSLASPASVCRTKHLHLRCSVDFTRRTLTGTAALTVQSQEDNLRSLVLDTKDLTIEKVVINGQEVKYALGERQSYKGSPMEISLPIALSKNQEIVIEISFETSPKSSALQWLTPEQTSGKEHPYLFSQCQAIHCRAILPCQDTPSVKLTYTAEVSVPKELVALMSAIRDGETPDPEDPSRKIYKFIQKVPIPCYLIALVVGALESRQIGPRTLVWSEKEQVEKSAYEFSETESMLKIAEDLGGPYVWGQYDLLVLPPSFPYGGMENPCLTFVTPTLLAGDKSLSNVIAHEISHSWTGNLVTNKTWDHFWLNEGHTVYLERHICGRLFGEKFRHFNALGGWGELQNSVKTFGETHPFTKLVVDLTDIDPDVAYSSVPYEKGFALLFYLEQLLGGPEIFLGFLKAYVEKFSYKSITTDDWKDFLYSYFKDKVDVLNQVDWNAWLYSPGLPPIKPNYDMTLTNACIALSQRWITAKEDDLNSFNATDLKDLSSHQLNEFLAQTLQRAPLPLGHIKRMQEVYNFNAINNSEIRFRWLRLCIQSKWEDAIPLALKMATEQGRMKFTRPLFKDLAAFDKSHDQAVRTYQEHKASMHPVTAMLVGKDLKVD
Procedure, shortened: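 Aminomethylcoumarin release measured fluorimetrically (380/460 nm) after 1 h at room temperature. Reaction: 1 nM final enzyme, 50 μM final Arg-AMC and compound in Tris-HCl pH 7.5 with 100 mM KCl and 0.5% BSA.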

[2] = system: synthesis of LTB4 in human whole blood; assay: human whole blood (HWB) assay, LTB4 production inhibition after calcimycin stimulation; assay type: cell-based; settings: heparinized human whole blood, calcimycin 20 μM, plasma LTB4 by HTRF
Procedure: The compounds of the invention are additionally tested in a human whole blood (HWB) assay to determine their ability to inhibit the synthesis of LTB4 in a cellular system. Compounds are combined with heparinized human whole blood and incubated for 15 minutes at 37° C. Calcimycin (20 μM final, prepared in phosphate-buffered saline, pH 7.4) is then added and the mixture is incubated for another 30 minutes at 37° C. The samples are centrifuged for 5 min at low speed (1500×g) and the plasma layer is removed. Plasma LTB4 concentrations are then measured using an antibody-based homogenous time-resolved fluorescence method (CisBio, Bedford, Mass.). In general, the preferred potency range (IC50) of compounds in the HWB assay is between 10 nM to 10 μM, the more preferred potency range is 10 nM to 1 μM, and the most preferred potency range is 10 nM to 100 nM.

[3] = LTA4H Enzyme 1 nM, Arg-AMC substrate 50 μM, room temperature 1 h, fluorescence, read-out: IC50 values of LTA4H Enzyme assay

| Compound | IC50 [1, 3] [nM] | IC50 [2] [nM] | IC50 [1] [nM] |
| --- | --- | --- | --- |
| CN(CCc1ccccn1)Cc1ccc([C@H]2COc3cccnc3O2)cc1 [Example 138, N-{4-[(3S)-2,3-dihydro[1,4]dioxino[2,3-b]pyridin-3-yl]benzyl}-N-methyl-2-(pyridin-2-yl)ethanamine] | 0.18 | 76 | – |
| c1cnc2c(c1)OC[C@H](c1ccc(CN3CCCCCC3)cc1)O2 [Example 139, (3S)-3-[4-(azepan-1-ylmethyl)phenyl]-2,3-dihydro[1,4]dioxino[2,3-b]pyridine] | 0.1 | 13 | – |
| CCN(C)Cc1ccc([C@H]2COc3cccnc3O2)cc1 [Example 140, N-{4-[(3S)-2,3-dihydro[1,4]dioxino[2,3-b]pyridin-3-yl]benzyl}-N-methylethanamine] | 0.38 | 33 | – |
| CCN(CC)Cc1ccc([C@H]2COc3cccnc3O2)cc1 [Example 141, N-{4-[(3S)-2,3-dihydro[1,4]dioxino[2,3-b]pyridin-3-yl]benzyl}-N-ethylethanamine] | 0.26 | 33 | – |
| CN(Cc1ccc([C@H]2COc3cccnc3O2)cc1)C1CCCC1 [Example 142, N-{4-[(3S)-2,3-dihydro[1,4]dioxino[2,3-b]pyridin-3-yl]benzyl}-N-methylcyclopentanamine] | 0.17 | 24 | – |
| c1cnc2c(c1)OC[C@H](c1ccc(CN3[C@H]4CC[C@@H]3CC4)cc1)O2 [Example 145, (3S)-3-{4-[(1s,4s)-7-azabicyclo[2.2.1]hept-7-ylmethyl]phenyl}-2,3-dihydro[1,4]dioxino[2,3-b]pyridine] | – | 28 | 0.09 |
| FC1CCN(Cc2ccc([C@H]3COc4cccnc4O3)cc2)CC1 [Example 155, (3S)-3-{4-[(4-fluoropiperidin-1-yl)methyl]phenyl}-2,3-dihydro[1,4]dioxino[2,3-b]pyridine] | 0.28 | 95 | – |
| c1cnc2c(c1)OC[C@H](c1ccc(CN3CCn4cnnc4C3)cc1)O2 [Example 156, (3S)-3-[4-(5,6-dihydro[1,2,4]triazolo[4,3-a]pyrazin-7(8H)-ylmethyl)phenyl]-2,3-dihydro[1,4]dioxino[2,3-b]pyridine] | 0.91 | 159 | – |
| COC1CCCN(Cc2ccc([C@H]3COc4cccnc4O3)cc2)C1 (stereo partly drawn) [Example 158, (3S)-3-{4-[(3-methoxypiperidin-1-yl)methyl]phenyl}-2,3-dihydro[1,4]dioxino[2,3-b]pyridine] | 0.13 | 28 | – |
| CC(=O)NC1CCN(Cc2ccc([C@H]3COc4cccnc4O3)cc2)CC1 [Example 160, N-(1-{4-[(3S)-2,3-dihydro[1,4]dioxino[2,3-b]pyridin-3-yl]benzyl}piperidin-4-yl)acetamide] | 0.18 | 28 | – |
| NC(=O)N1CCN(Cc2ccc([C@H]3COc4cccnc4O3)cc2)CC1 [Example 164, 4-{4-[(3S)-2,3-dihydro[1,4]dioxino[2,3-b]pyridin-3-yl]benzyl}piperazine-1-carboxamide] | 0.84 | 100 | – |
| COC1CCN(Cc2ccc([C@H]3COc4cccnc4O3)cc2)C1 (stereo partly drawn) [Example 168, (3S)-3-{4-[(3-methoxypyrrolidin-1-yl)methyl]phenyl}-2,3-dihydro[1,4]dioxino[2,3-b]pyridine] | 0.31 | 39 | – |
| c1cnc2c(c1)OC[C@H](c1ccc(CNC3CCC3)cc1)O2 [Example 173, N-{4-[(3S)-2,3-dihydro[1,4]dioxino[2,3-b]pyridin-3-yl]benzyl}cyclobutanamine] | 0.73 | 73 | – |
| CS(=O)(=O)N1CCC(NCc2ccc([C@H]3COc4ccccc4O3)cc2)CC1 [Example 174, N-{4-[(2S)-2,3-dihydro-1,4-benzodioxin-2-yl]benzyl}-1-(methylsulfonyl)piperidin-4-amine] | 0.6 | 268 | – |
| NC(=O)NC1CCN(Cc2ccc([C@H]3COc4ccccc4O3)cc2)CC1 [Example 175, 1-(1-{4-[(2S)-2,3-dihydro-1,4-benzodioxin-2-yl]benzyl}piperidin-4-yl)urea] | 0.22 | 73 | – |
| CC(=O)NC1CCN(Cc2ccc([C@H]3COc4ccccc4O3)cc2)CC1 [Example 178, N-(1-{4-[(2S)-2,3-dihydro-1,4-benzodioxin-2-yl]benzyl}piperidin-4-yl)acetamide] | 0.35 | 160 | – |
| O=C(O)C[C@@H]1CCCN(Cc2ccc([C@H]3COc4ccccc4O3)cc2)C1 [Example 183, [(3S)-1-{4-[(2S)-2,3-dihydro-1,4-benzodioxin-2-yl]benzyl}piperidin-3-yl]acetic acid] | 0.48 | 151 | – |
| CC(=O)N1CCN(Cc2ccc([C@H]3COc4cccnc4O3)cc2)CC1 [Example 185, 1-(4-{4-[(3S)-2,3-dihydro[1,4]dioxin[2,3-b]pyridin-3-yl]benzyl}piperazin-1-yl)ethanone] | 0.59 | 92 | – |
| OC1CCN(Cc2ccc([C@H]3COc4cccnc4O3)cc2)CC1 [Example 186, 1-{4-[(3S)-2,3-dihydro[1,4]dioxino[2,3-b]pyridin-3-yl]benzyl}piperidin-4-ol] | 0.24 | 36 | – |
| NC(=O)NC1CCN(Cc2ccc([C@H]3COc4cccnc4O3)cc2)CC1 [Example 187, 1-(1-{4-[(3S)-2,3-dihydro[1,4]dioxino[2,3-b]pyridin-3-yl]benzyl}piperidin-4-yl)urea] | 0.07 | 177 | – |
| CS(=O)(=O)NC1CCN(Cc2ccc([C@H]3COc4cccnc4O3)cc2)CC1 [Example 190, N-(1-{4-[(3S)-2,3-dihydro[1,4]dioxino[2,3-b]pyridin-3-yl]benzyl}piperidin-4-yl)methanesulfonamide] | 0.09 | 26 | – |
| O=C(O)C1CCN(Cc2ccc([C@H]3COc4ccccc4O3)cc2)CC1 [Example 200, (S)-1-[4-(2,3-dihydro-benzo[1,4]dioxin-2-yl)-benzyl]-piperidine-4-carboxylic acid] | 0.12 | 83 | – |
| c1cnc2c(c1)OC[C@H](c1ccc(CN3CCOCC3)cc1)O2 [Example 204, (S)-3-(4-Morpholin-4-ylmethyl-phenyl)-2,3-dihydro-[1,4]dioxino[2,3-b]pyridine] | 0.15 | 95 | – |
| O=C(O)[C@@H]1CCN(Cc2ccc([C@H]3COc4ccccc4O3)cc2)C1 [Example 214, (3R)-1-{4-[(2S)-2,3-dihydro-1,4-benzodioxin-2-yl]benzyl}pyrrolidine-3-carboxylic acid] | 0.47 | 169 | – |
| COCC(=O)NC1CCN(Cc2ccc([C@H]3COc4ccccc4O3)cc2)CC1 [Example 219, N-(1-{4-[(2S)-2,3-dihydro-1,4-benzodioxin-2-yl]benzyl}piperidin-4-yl)-2-methoxyacetamide] | 0.49 | 149 | – |
| CC(C)(O)C(=O)NC1CCN(Cc2ccc([C@H]3COc4ccccc4O3)cc2)CC1 [Example 220, N-(1-{4-[(2S)-2,3-dihydro-1,4-benzodioxin-2-yl]benzyl}piperidin-4-yl)-2-hydroxy-2-methylpropanamide] | 0.47 | 91 | – |
| CC(c1ccc([C@H]2COc3ccccc3O2)cc1)N1CCC(C(=O)O)CC1 (stereo partly drawn) [Example 227, 1-{1-[(S)-4-(2,3-dihydro-benzo[1,4]dioxin-2-yl)-phenyl]-ethyl}-piperidine-4-carboxylic acid] | 1.4 | 307 | – |
| CC(C)(C(=O)O)C1CCN(Cc2ccc([C@H]3COc4ccccc4O3)cc2)CC1 [Example 229, 2-{1-[(S)-4-(2,3-Dihydro-benzo[1,4]dioxin-2-yl)-benzyl]-piperidin-4-yl}-2-methyl-propionic acid formate salt] | 3.85 | 290 | – |
| O=C(O)c1ccc(CC2CCN(Cc3ccc([C@H]4COc5cccnc5O4)cc3)CC2)cc1 [Example 234, 4-[(1-{4-[(3S)-2,3-dihydro[1,4]dioxino[2,3-b]pyridin-3-yl]benzyl}piperidin-4-yl)methyl]benzoic acid] | 0.14 | 95 | – |
| CCCCN(Cc1ccc(C(=O)O)cc1)Cc1ccc([C@H]2COc3ccccc3O2)cc1 [Example 237, 4-[(butyl{4-[(2S)-2,3-dihydro-1,4-benzodioxin-2-yl]benzyl}amino)methyl]benzoic acid] | 0.81 | 95 | – |
